Measured values: patent US20260374766A1, “METHODS FOR TREATING CANCER” (Antares Therapeutics, Inc., priority 2022, published 2026)
Read-outs that look alike come from different tables or passages of the source.

Assays:
[1] = target: T1, p53 Y220C mutant protein (amino acid residues 94-293) (Homo sapiens, UniProt P04637, Y220C); assay: Surface Plasmon Resonance (SPR) assay, Kd_kinetic; assay type: binding; details: SPR; p53 Y220C; read-out: SPR P53 Y220C KD kinetic
T1 construct: p53 Y220C mutant protein (amino acid residues 94-293)
Procedure, shortened: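 Binding measured by SPR on a Biacore 8K in running buffer of 50 mM Tris pH 7.5, 100 mM NaCl, 1 mM DTT, 0.01% Brij35, 0.05% Tween-20, 1% DMSO.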

H1299 p53 R273H = assay: Cell Proliferation Assay (CellTiter-Glo, CTG), H1299 p53 R273H (NClH1299-inducible p53 R273H); assay type: cell-based; details: Homo sapiens, NCI-H1299, 120 h, NClH1299-inducible p53 R273H cells, 5 days
Procedure, shortened: (§1)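 Cells seeded at 250-500 per well and exposed to compound for 5 days. Viability read by CellTiter-Glo luminescence after 10 min at room temperature; IC50 calculated. H1299 lines carry Tet-One inducible p53 mutant constructs introduced by lentiviral transduction.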

NUGC3 p53 Y220C = assay: Cell Proliferation Assay (CellTiter-Glo, CTG), NUGC3 p53 Y220C; assay type: cell-based; details: Homo sapiens, NUGC-3, 120 h, NUGC3 cells, 5 days
Procedure, shortened: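 NClH1299 lines stably transduced with Tet-inducible p53 Y220C or R273H, plus NUGC3, were treated with compound for 5 days at 250-500 cells/well. IC50 derived from CellTiter-Glo luminescent signal after 10 min room-temperature incubation.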

[2] = target: T1, p53 Y220C mutant protein (amino acid residues 94-293); assay: Thermal Shift Assay (TSA), dTM; assay type: binding; details: read-out: TSA P53 Y220C dTM; for ΔTm at 10 µM: 10 uM compound
Procedure, shortened: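 First, the mutant DNA-binding domain (5 μM) was preincubated 3 hours at 20 °C with compound at 10 μM or 100 μM. Next, the sample was heated from 30 °C to 50 °C at 0.03 °C/second in the presence of Sypro Orange. Finally, TM was obtained from a two-state Boltzmann fit.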

p53 Y220C = p53 Y220C (Homo sapiens, UniProt P04637, Y220C); assay: Luciferase Reporter Assay (Luc), p53 response element, NClH1299 cells with inducible p53 Y220C; assay type: cell-based; details: 6 hour; for AC50: read-out: Luc P53 Y220C AC50
Procedure, shortened: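 Luciferase activity is measured directly after One-Glo addition and a 5-minute room-temperature shake. Before that, cells plated at 5,000 per well receive doxycycline at 0.5 ug/mL for 24 hours, followed by compound for 6 hours.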

H1299 p53 Y220C = assay: Cell Proliferation Assay (CellTiter-Glo, CTG), H1299 p53 Y220C (NClH1299-inducible p53 Y220C); assay type: cell-based; details: Homo sapiens, NCI-H1299, 120 h, NClH1299-inducible p53 Y220C cells, 5 days
Procedure, shortened: as §1

[3] = luciferase reporter, NClH1299 inducible p53 Y220C

Kd [1] | IC50 (H1299 p53 R273H; CellTiter-Glo) | ΔTm at 10 µM ([2]; p53 Y220C) | AC50 (p53 Y220C; [3]) | Emax (p53 Y220C; [3]) | IC50 (H1299 p53 Y220C; CellTiter-Glo) | IC50 (H1299 p53 R273H) | ΔTm at 10 µM [2] | ΔTm at 100 µM ([2]; 100 uM compound) | AC50 (p53 Y220C; NClH1299 cells with inducible p53 Y220C) | Emax (p53 Y220C; NClH1299 cells with inducible p53 Y220C, 10 uM tool compound as positive control) | IC50 (H1299 p53 Y220C) | Compound | IC50 (NUGC3 p53 Y220C; CellTiter-Glo) | IC50 (NUGC3 p53 Y220C)
< 10 nM | ≥ 10000 nM | ≥ 10 °C | < 750 nM | > 90% | < 750 nM |  |  |  |  |  |  | COc1ccc(C(=O)NC[C@H](C)O)cc1NCC#Cc1cc2c(N[C@@H]3CCN(C)C[C@@H]3F)nccn2c1SC(F)(F)F [Example 358] | < 750 nM | 
< 10 nM | ≥ 10000 nM | ≥ 10 °C | < 750 nM | > 90% | < 750 nM |  |  |  |  |  |  | COc1ccc(C(=O)NC[C@@H](C)O)cc1NCC#Cc1cc2c(N[C@@H]3CCN(C)C[C@@H]3F)nccn2c1SC(F)(F)F [Example 359] | < 750 nM | 
10 to 100 nM |  |  |  |  |  | ≥ 10000 nM | 5 to 10 °C | 5 to 10 °C | > 3000 nM | < 70% | > 3000 nM | CN1CC[C@@H](Nc2cccn3c(SC(F)(F)F)c(-c4noc(CNC(=O)C5CC5)n4)nc23)[C@@H](F)C1 [Example 458] |  | > 3000 nM
